GI50 and TGI data for one molecule are collected here from PubChem BioAssay (NCI).

Assay in all cases: NCI tumour cell line growth inhibition, 48 h
Assay [1] has as its system T-47D breast.
Assay [2] concerns MOLT-4 leukemia.
The test system of assay [3] is MDA-MB-435.
The subject of assay [4] is SF-295 CNS.
In assay [5] the test system is HL-60(TB) leukemia.
Assay [6] has as its system CCRF-CEM leukemia.
Assay [7] deals with OVCAR-5 ovarian.
For assay [8], the system named is HCT-116 colon.
Assay [9] relates to NCI/ADR-RES ovarian.
The test system of assay [10] is HS 578T breast.

Molecules are shown by their SMILES.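 Where inhibition never reached the appropriate level, the endpoint shown equals the highest concentration tested. Otherwise, values were interpolated linearly from a five-concentration, 48-hour dose response in 96-well plates. GI50 marks 50% less growth. TGI: concentration producing complete growth inhibition.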

For the molecule `CCSCC1CC(O)(c2ccccc2)CC(c2ccc(F)cc2)O1` (stereo not given), the GI50 in assay [1] is 2230 nM; in assay [2] it was 1660 nM; in assay [3] it was 2040 nM; in [4], 1900 nM; in assay [5] it was 2190 nM; in assay [6] it was 1860 nM. Further, the GI50 is 2170 nM in [7], 1660 nM in assay [8], 2440 nM in assay [9] and 1890 nM in assay [10]. Further, the TGI stood at 8240 nM in assay [1]; 4140 nM in assay [2]; 4360 nM in [3]; 3920 nM in assay [4]; 4560 nM in assay [5]; 5910 nM in assay [6]. For the same molecule, the TGI in assay [7] came to 5090 nM; in assay [8], 3020 nM; in assay [9] it was 6660 nM; in [10], 4360 nM.
